# Measured values: PubChem BioAssay (NCI)
#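 The compound was tested at five concentrations on cells cultured in 96-well plates, with a 48-hour exposure period. Abbreviation: GI50, concentration required for 50% inhibition of growth. TGI denotes the concentration required for complete inhibition of growth.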
# What was measured:
# Experiment in all cases: NCI tumour cell line growth inhibition, 48 h
# [1] = system: SR leukemia
# [2] = system: ACHN renal
# [3] = system: OVCAR-8 ovarian
# [4] = system: NCI-H23 lung
# [5] = system: MOLT-4 leukemia
# [6] = system: U251 CNS
# [7] = system: UACC-257 melanoma
# [8] = system: RXF 393 renal
# [9] = system: NCI/ADR-RES ovarian
# [10] = system: UACC-62 melanoma
# [11] = system: SK-MEL-28 melanoma
# [12] = system: SNB-75 CNS
# [13] = system: OVCAR-5 ovarian
# [14] = system: OVCAR-3 ovarian
# [15] = system: SF-295 CNS
# [16] = system: IGROV1 ovarian
# [17] = system: NCI-H460 lung
# [18] = system: RPMI-8226 leukemia
# [19] = system: NCI-H522 lung
# [20] = system: COLO 205 colon
# [21] = system: EKVX NSCLC
# [22] = system: CCRF-CEM leukemia
# [23] = system: TK-10 renal
# [24] = system: SK-MEL-2 melanoma
# [25] = system: HCT-116 colon
# [26] = system: MDA-MB-231 breast
# [27] = system: DU-145 prostate
# [28] = system: A549 NSCLC
# [29] = system: HT29 colon
# [30] = system: M14 melanoma
# [31] = system: HOP-62 NSCLC
# [32] = system: SK-OV-3 ovarian
# [33] = system: K-562 leukemia
# [34] = system: SF-539 CNS
# [35] = system: HL-60(TB) leukemia
# [36] = system: MCF7 breast
# [37] = system: OVCAR-4 ovarian
# [38] = system: HCC-2998 colon
# [39] = system: SNB-19 CNS
# [40] = system: MALME-3M melanoma
# [41] = system: HCT-15 colon
# [42] = system: UO-31 renal
# [43] = system: MDA-MB-435
# [44] = system: 786-0 renal
# [45] = system: T-47D breast
# [46] = system: KM12 colon
# [47] = system: SF-268 CNS
# [48] = system: SW-620 colon
# [49] = system: SK-MEL-5 melanoma
# [50] = system: PC-3 prostate
# [51] = system: HOP-92 NSCLC
# [52] = system: LOX IMVI melanoma
# [53] = system: HS 578T breast
# [54] = system: NCI-H226 lung
# [55] = system: SN12C renal
# [56] = system: CAKI-1 renal
# [57] = system: BT-549 breast
structure (smiles),measurement,setting,value
CC(=O)O[C@H]1C[C@@H]2[C@@]3(C)CC[C@H]4C[C@@]4(C)[C@@H]3CC[C@@]2(C)C2=CCC3=C(COC3=O)[C@]21C,GI50,[1],> 100 µM
same,TGI,[1],> 100 µM
same,GI50,[2],21.5 µM
same,TGI,[2],43.9 µM
same,GI50,[3],19.9 µM
same,TGI,[3],65 µM
same,GI50,[4],20.1 µM
same,TGI,[4],49.9 µM
same,GI50,[5],33.5 µM
same,TGI,[5],> 100 µM
same,GI50,[6],17.4 µM
same,TGI,[6],36.3 µM
same,GI50,[7],34.2 µM
same,TGI,[7],> 100 µM
same,GI50,[8],21.2 µM
same,TGI,[8],52.6 µM
same,GI50,[9],16.9 µM
same,TGI,[9],36.3 µM
same,GI50,[10],16.6 µM
same,TGI,[10],36.4 µM
same,GI50,[11],21.6 µM
same,TGI,[11],44 µM
same,GI50,[12],23.1 µM
same,TGI,[12],51.2 µM
same,GI50,[13],19.3 µM
same,TGI,[13],39.5 µM
same,GI50,[14],10.1 µM
same,TGI,[14],25.7 µM
same,GI50,[15],19.6 µM
same,TGI,[15],40.9 µM
same,GI50,[16],26.5 µM
same,TGI,[16],78 µM
same,GI50,[17],29.9 µM
same,TGI,[17],> 100 µM
same,GI50,[18],17.9 µM
same,TGI,[18],50.2 µM
same,GI50,[19],24.5 µM
same,TGI,[19],84.1 µM
same,GI50,[20],34 µM
same,TGI,[20],> 100 µM
same,GI50,[21],17.6 µM
same,TGI,[21],35 µM
same,GI50,[22],33.6 µM
same,TGI,[22],> 100 µM
same,GI50,[23],20.4 µM
same,TGI,[23],48.5 µM
same,GI50,[24],36.3 µM
same,TGI,[24],> 100 µM
same,GI50,[25],19.5 µM
same,TGI,[25],43.7 µM
same,GI50,[26],15.8 µM
same,TGI,[26],35.9 µM
same,GI50,[27],15.6 µM
same,TGI,[27],38.5 µM
same,GI50,[28],20.8 µM
same,TGI,[28],44.4 µM
same,GI50,[29],31.6 µM
same,TGI,[29],> 100 µM
same,GI50,[30],22.6 µM
same,TGI,[30],47.3 µM
same,GI50,[31],17.5 µM
same,TGI,[31],36.4 µM
same,GI50,[32],32.6 µM
same,TGI,[32],> 100 µM
same,GI50,[33],40.4 µM
same,TGI,[33],> 100 µM
same,GI50,[34],15.7 µM
same,TGI,[34],32.5 µM
same,GI50,[35],52.7 µM
same,TGI,[35],> 100 µM
same,GI50,[36],24 µM
same,TGI,[36],89.8 µM
same,GI50,[37],25 µM
same,TGI,[37],60.2 µM
same,GI50,[38],23.7 µM
same,TGI,[38],51.4 µM
same,GI50,[39],24.3 µM
same,TGI,[39],69.7 µM
same,GI50,[40],11 µM
same,TGI,[40],26.4 µM
same,GI50,[41],21 µM
same,TGI,[41],56.1 µM
same,GI50,[42],32.1 µM
same,TGI,[42],> 100 µM
same,GI50,[43],22.6 µM
same,TGI,[43],46.9 µM
same,GI50,[44],18.6 µM
same,TGI,[44],37.7 µM
same,GI50,[45],20.7 µM
same,TGI,[45],54.7 µM
same,GI50,[46],18.7 µM
same,TGI,[46],43.6 µM
same,GI50,[47],21 µM
same,TGI,[47],46.9 µM
same,GI50,[48],19.4 µM
same,TGI,[48],43.6 µM
same,GI50,[49],17.7 µM
same,TGI,[49],34.5 µM
same,GI50,[50],18.4 µM
same,TGI,[50],46.1 µM
same,GI50,[51],16.7 µM
same,TGI,[51],35 µM
same,GI50,[52],17.6 µM
same,TGI,[52],36.5 µM
same,GI50,[53],10.2 µM
same,TGI,[53],27.3 µM
same,GI50,[54],16 µM
same,TGI,[54],32.6 µM
same,GI50,[55],18.7 µM
same,TGI,[55],38.3 µM
C=CCN(CC=C)Cc1c[nH]c2ccccc12,GI50,[1],30.3 µM
same,TGI,[1],> 100 µM
same,GI50,[2],36.3 µM
same,TGI,[2],> 100 µM
same,GI50,[3],11.9 µM
same,TGI,[3],69 µM
same,GI50,[4],14 µM
same,TGI,[4],52.8 µM
same,GI50,[5],72.7 µM
same,TGI,[5],> 100 µM
same,GI50,[6],13.2 µM
same,TGI,[6],31.2 µM
same,GI50,[7],8.63 µM
same,TGI,[7],28 µM
same,GI50,[56],19.8 µM
same,TGI,[56],> 100 µM
same,GI50,[9],18.3 µM
same,TGI,[9],43.8 µM
same,GI50,[10],18.1 µM
same,TGI,[10],54.1 µM
same,GI50,[11],> 100 µM
same,TGI,[11],> 100 µM
same,GI50,[12],> 100 µM
same,TGI,[12],> 100 µM
same,GI50,[13],17 µM
same,TGI,[13],34.6 µM
same,GI50,[15],21 µM
same,TGI,[15],> 100 µM
same,GI50,[16],16 µM
same,TGI,[16],42.6 µM
same,GI50,[17],21.8 µM
same,TGI,[17],62.3 µM
same,GI50,[18],17.8 µM
same,TGI,[18],> 100 µM
same,GI50,[19],14.9 µM
same,TGI,[19],33.8 µM
same,GI50,[20],18.4 µM
same,TGI,[20],> 100 µM
same,GI50,[22],56.9 µM
same,TGI,[22],> 100 µM
same,GI50,[23],6.93 µM
same,TGI,[23],38.7 µM
same,GI50,[24],15.3 µM
same,TGI,[24],38.3 µM
same,GI50,[25],14.6 µM
same,TGI,[25],32.1 µM
same,GI50,[26],23.4 µM
same,TGI,[26],54.8 µM
same,GI50,[57],2.31 µM
same,TGI,[57],8.33 µM
same,GI50,[28],31.5 µM
same,TGI,[28],> 100 µM
same,GI50,[29],41.9 µM
same,TGI,[29],> 100 µM
same,GI50,[32],> 100 µM
same,TGI,[32],> 100 µM
same,GI50,[33],50.2 µM
same,TGI,[33],> 100 µM
same,GI50,[35],84.2 µM
same,TGI,[35],> 100 µM
same,GI50,[36],3 µM
same,TGI,[36],19.7 µM
same,GI50,[37],> 100 µM
same,TGI,[37],> 100 µM
same,GI50,[38],27.8 µM
same,TGI,[38],72.7 µM
same,GI50,[39],> 100 µM
same,TGI,[39],> 100 µM
same,GI50,[40],7.83 µM
same,TGI,[40],67.7 µM
same,GI50,[41],32.8 µM
same,TGI,[41],> 100 µM
same,GI50,[42],35.2 µM
same,TGI,[42],> 100 µM
same,GI50,[43],10.9 µM
same,TGI,[43],32.9 µM
same,GI50,[44],4.33 µM
same,TGI,[44],14.7 µM
same,GI50,[45],> 100 µM
same,TGI,[45],> 100 µM
same,GI50,[46],32.2 µM
same,TGI,[46],> 100 µM
same,GI50,[47],11.5 µM
same,TGI,[47],32.5 µM
same,GI50,[48],26.3 µM
same,TGI,[48],> 100 µM
same,GI50,[49],6 µM
same,TGI,[49],23.8 µM
same,GI50,[50],32.4 µM
same,TGI,[50],> 100 µM
same,GI50,[51],> 100 µM
same,TGI,[51],> 100 µM
same,GI50,[52],27.4 µM
same,TGI,[52],> 100 µM
same,GI50,[55],16 µM
same,TGI,[55],41.8 µM
